Reference: US11980616B2, “Treating liver disease by selectively eliminating senescent cells” (Buck Institute for Research on Aging, priority 2014, dated 2024)

Tests used:
[1] = tested on: doxorubicin-treated (Doxo) senescent foreskin fibroblasts (HCA2); test: Cell count survival assay, doxorubicin-induced senescent HCA2; type: cell-based; details: Sen(Doxo) HCA2; 9 days
Experimental: (§1) Foreskin fibroblast cell lines HCA2 and BJ, lung fibroblast cell line IMR90, and mouse embryonic fibroblasts were seeded in six-well plates and induced to senesce with 10 Gy of ionizing radiation (IR) or a 24 hr treatment with doxorubicin (Doxo). Senescent phenotype was allowed to develop for at least 7 days, at which point a cell count was made to determine the baseline number of cells. Nutlin-3a treatment was then initiated for a period of at least 9 days. Media alone or media with drug as appropriate was refreshed at least every three days. At the end of the assay time period, cells are counted. Each condition was seeded in three plate wells and counted independently. Initial cell count serves as a control to determine the induction of senescence, as compared to the last day count without nutlin treatment. Initial non-senescent cell count serves as a proxy to determine Nutlin-3a toxicity.
Foreskin fibroblasts (HCA2) and aortic endothelial cells (Endo Aort) were treated with doxorubicin (250 nM) for one day (24 hours) to induce senescence (see FIG. 1). Eight days following doxorubicin treatment, Nutlin-3a treatment was initiated. HCA2 cells were exposed to Nutlin-3a for 9 days, and aortic endothelial cells were exposed to Nutlin-3a for 11 days. […] Percent survival was calculated as [cell count on the last day of Nutlin-3a treatment/initial cell count on first day of Nutlin-3a treatment].

[2] = tested on: doxorubicin-induced senescent cells in p16-3MR mice; test: Removal of doxorubicin-induced senescent cells in p16-3MR transgenic mice; type: in vivo, mouse
Experimental: The capability of Nutlin-3a to remove senescent cells in vivo was determined in transgenic p16-3MR mice (see, e.g., International Application Publication No. WO2013/090645). The transgenic mouse comprises a p16^Ink4a promoter operatively linked to a trimodal fusion protein for detecting senescent cells and for selective clearance of senescent cells in these transgenic mice, which is illustrated in FIG. 7. […] 3MR (tri-modality reporter) is a fusion protein containing functional domains of a synthetic Renilla luciferase (LUC), monomeric red fluorescence protein (mRFP), and truncated herpes simplex virus (HSV)-1 thymidine kinase (tTK), which allows killing by ganciclovir (GCV) (see, e.g., Ray et al., Cancer Res. 64:1323-30 (2004)). The 3MR cDNA was inserted in frame with p16 in exon 2, creating a fusion protein containing the first 62 amino acids of p16, but not a full-length wild-type p16 protein. […] The p16^Ink4a gene promoter (approximately 100 kilobase pairs) was introduced upstream of a nucleotide sequence encoding a trimodal reporter fusion protein. Alternatively, a truncated p16^Ink4a promoter may be used (see, e.g., Baker et al., Nature, supra; International Application Publication No. WO2012/177927; Wang et al., supra). Thus, the expression of 3MR is driven by the p16^Ink4a promoter in senescent cells only. The detectable markers, LUC and mRFP permitted detection of senescent cells by bioluminescence and fluorescence, respectively. […] Transgenic founder animals, which have a C57B16 background, were established and bred using known procedures for introducing transgenes into animals (see, e.g., Baker et al., Nature 479:232-36 (2011)).
Female C57/BL6 p16-3MR mice were randomized into doxorubicin+Nutlin-3a treated or doxorubicin only treated groups (see FIG. 6). Senescence was induced by intraperitoneal administration of doxorubicin at 10 mg/kg to the mice ten days prior to administration of Nutlin-3a (Day −10). Nutlin-3a (25 mg/kg) was administered intraperitoneally daily from day 10 to day 24 post-doxorubicin treatment (Group=9 mice). Control mice (doxorubicin treated) were injected with equal volumes of PBS (Group=3 mice). Luminescence imaging (Xenogen Imaging system) was performed at Day 0 (i.e., 10 days post-doxorubicin treatment) as a baseline for each mouse (100% intensity).
Luminescence imaging of the mice was performed on day 7, 14, 21, 28, and 35 following the initiation of Nutlin-3a treatment. Reduction of luminescence (L) was calculated as: L=(Imaging post-Nutlin-3a treatment)/(Baseline Imaging)[…]. If L is greater than or equal to 100%, the number of senescent cells was not reduced. If L is less than 100%, then the number of senescent cells was reduced. Every mouse was calculated independently, and background was subtracted from each sample.
Experiments were performed to determine the effect of Nutlin-3a treatment on expression of genes associated with senescence. Groups of female C57/BL6 p16-3MR were treated as described above. Three weeks after the end of Nutlin-3a treatment (day 35), the doxorubicin treated mice (control) (N=3) and doxorubicin+Nutlin-3a-treated mice (N=6) were sacrificed. […]
RNA was analyzed for mRNA levels of endogenous senescence markers (p21, p16^INK4a (p16), and p53) and SASP factors (mmp-3 and IL-6) relative to actin mRNA (control for cDNA quantity) using the Roche Universal Probe Library for real-time PCR assay. […]

[3] = tested on: senescent lung fibroblasts (Sen(IR)IMR90); test: Cell count survival assay, irradiation-induced senescent IMR90; type: cell-based, human; details: 0, 2.5, 10 μM for 9 days
Experimental: as §1
Foreskin fibroblast cell lines HCA2 and BJ, lung fibroblast cell line IMR90, and mouse embryonic fibroblasts were exposed to 10 Gy of ionizing radiation (IR) to induce senescence. […] Percent survival was calculated as [cell count on day 9 of Nutlin-3a treatment/initial cell count on first day of Nutlin-3a treatment].

COc1ccc(C2=N[C@@H](c3ccc(Cl)cc3)[C@@H](c3ccc(Cl)cc3)N2C(=O)N2CCNC(=O)C2)c(OC(C)C)c1 [Nutlin-3a]
Percent survival [1]: sensitive
Luminescence associated with doxorubicin-induced senescence (% of baseline) ([2]; 25 mg/kg i.p. daily day 10 to 24 post-doxorubicin): reduced luminescence
Decrease in luminescence ([2]; 25 mg/kg i.p. daily, at day 14, day 28 and day 35): statistically significant decrease
γH2AX positive cells (DNA damage) in lung sections ([2]; day 35, vs doxorubicin alone): reduced the number of cells with DNA damage
mRNA of SASP factors (mmp-3, IL-6) and senescence markers (p21, p16, p53) ([2]; skin and fat, day 35, vs doxorubicin alone): reduced expression
Senescence-associated β-gal intensity in fat biopsies ([2]; three weeks after treatment, vs doxorubicin alone): reduced senescence-associated β-gal intensity
Percent survival [3]: reduced cell survival
